Data on 1 substance can be found in article PMC12591182, “PD‐L1‐Targeting Biomimetic Photoresponsive Thermosensitive Liposomes for Triple‐Negative Breast Cancer” (Advanced Science, 2025).

This experiment concerns PD-L1 expression in 4T1 cells. Kind of experiment: Immunoblot analysis of PD-L1 expression. The class given is cell-based, mouse. As to conditions: 4T1 cells cultured 48 h after exposure at 42 ℃ for 10 min. How it is done: fluctuations were continuously recorded using an infrared thermal imaging camera (FLIR E50, USA).
Cell lysis and immunoblotting
Cells were washed with PBS and lysed using RIPA buffer supplemented with protease inhibitors. The lysates were subjected to SDS-PAGE (12% or 10% Bis-Tris gel) and subsequently transferred onto a nitrocellulose membrane. The membrane was blocked with TBS-T containing 5% non-fat dry milk, followed by overnight incubation with the primary antibody at 4 °C. After triplicate washing with TBS-T, the membrane was incubated with the HRP-conjugated secondary antibody for 1 h at room temperature and developed using ECL detection reagents.
The TRIzol reagent was used for RNA extraction according to the manufacturer's instructions. Total RNA was reverse -transcribed into cDNA using an iScript cDNA synthesis kit. Quantitative analysis of the target genes was performed using the Universal SYBR Green Supermix qPCR kit. GAPDH was used as the reference gene for relative quantification normalization, with details of the primer sequences provided in Supplementary Table 1. […]
The lysis buffer was then neutralized by adding an equal volume of RPMI 1640 medium, followed by centrifugation at 500 × g for 3 min. […] After incubation, the cells were washed with PBS to remove T cells and debris, followed by crystal violet staining to quantify the live cancer cells. […]
(Immunoblotting shows a protein as a band on a membrane.)

Regarding “GFTATPPPDSPQEP/PEIF [PTPRF, fluorinated PTPR: PTPR combined with fluorinated polyethyleneimine PEIF]”, the “concentration that effectively inhibited PD-L1 expression” value is reported as 10 µM.
